The text below walks through data of PubChem BioAssay (NCI).

Holding throughout (assay): growth of human tumour cells (NCI), 48 h
In test [1] the test system is UACC-62 melanoma.
Test [2] relates to SN12C renal.
For test [3], the system named is SF-539 CNS.
Test [4] has as its system HCC-2998 colon.
For test [5], the system named is CAKI-1 renal.
In test [6] the test system is SK-OV-3 ovarian.
In test [7] the test system is UACC-257 melanoma.
Test [8] deals with MALME-3M melanoma.

Each structure is given as a SMILES string.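 96-well plates; 48 h exposure; 5 concentrations. Endpoints by linear interpolation between flanking doses. Not reached: highest tested concentration assigned. GI50 marks 50% less growth. TGI: total growth inhibition.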 Bounds are passed on as bounds.

As to `Cc1cc2c(C(N)=O)cccc2n1-c1nc2c(c(NCc3ccccc3)n1)CCCN2`, the GI50 in test [1] is 155 nM; in test [2], 134 nM; in test [3] it was 205 nM; in test [4], 170 nM; in test [5], 151 nM; in test [6], 320 nM. Further, the results for the GI50 in test [7] and in test [8] were 0.167 µM and 178 nM, respectively. In addition, the TGI is 0.33 µM in test [1]; 0.335 µM in test [2]; 0.423 µM in test [3]; 0.325 µM in test [4]; 333 nM in test [5]; 0.813 µM in test [6]. For the same compound, the TGI was 0.347 µM in test [7] and 0.346 µM in test [8].

As to `C=C1C(=O)O[C@@H]2C[C@@H](C)[C@@H]3[C@@H](OC4OC(COC(C)=O)C(O)C(O)C4O)CC(=O)[C@@]3(C)C[C@H]12` (some centres not stated), the TGI in test [1] is 2.98 µM; in test [2], 3.51 µM; in test [3] it was 6.27 µM; in test [4] it was 3.14 µM; in test [5], 1010 nM; in test [6], 37.4 µM. Moreover, the TGI in test [7] stood at 3.49 µM; in test [8], 0.849 µM.

With `Clc1cc(Cl)cc(N2N=C(c3cccc(Nc4ccncc4)c3)CC2c2ccc(Br)cc2)c1` (configuration not stated), the GI50 in test [1] was 1680 nM; in test [2], 1670 nM; in test [3], 1700 nM; in test [4] it was 1770 nM; in test [5] it was 1540 nM; in test [6], 2010 nM. In addition, the GI50 in test [7] was 1.92 µM; in test [8], 1710 nM. Moreover, the TGI worked out at 3.13 µM in test [1]; 3.11 µM in test [2]; 3.12 µM in test [3]; 3.2 µM in test [4]; 2910 nM in test [5]; 4.11 µM in test [6]. Further, the TGI in test [7] came out at 3.85 µM; in test [8] it was 3.5 µM.

Turning to `COc1cccc(/C=C/C(=O)c2cc3c(N)c(C(=O)Nc4cccc(Cl)c4C)sc3nc2C)c1`, the GI50 is 844 nM in test [1]; 1210 nM in test [2]; 967 nM in test [3]; 971 nM in test [4]; 884 nM in test [5]; 2200 nM in test [6]. The GI50 in test [7] is 3.48 µM; in test [8] it was 1340 nM. Besides, the TGI in test [1] is 3.5 µM; in test [2], 3.43 µM; in test [3], 2.01 µM; in test [4] it was 1.83 µM; in test [5] it was 2530 nM; in test [6], above 50 µM. Besides, the values for the TGI in test [7] and in test [8] were 20.9 µM and 7.76 µM, respectively.

For `O=C(CNC(=O)c1cccc2ccccc12)Nc1ccccc1Oc1ccccc1`, the GI50 in test [1] is 177 nM; in test [2] it was 583 nM; in test [3], 237 nM; in test [4], 712 nM; in test [5], 353 nM; in test [6] it was 398 nM. Further, the TGI in test [1] is above 10 µM; in test [2], above 10 µM; in test [3] it was 0.695 µM; in test [4], above 10 µM; in test [5], above 10000 nM; in test [6], 4.34 µM. The compound also displayed a TGI in test [8] above 10 µM.

As for `Fc1ccc(-c2nnc3sc(-c4cccc(Cl)c4)nn23)cc1Cl`, the GI50 in test [1], in test [2], in test [3], in test [4], in test [5] and in test [6] was above 100000 nM each time. Moreover, the GI50 was above 100 µM in test [7] and above 100000 nM in test [8]. The TGI in test [1] was above 100 µM; in test [2], above 100 µM; in test [3], above 100 µM; in test [4], above 100 µM; in test [5], above 100000 nM; in test [6] it was above 100 µM. Besides, the TGI in test [7] and in test [8] was above 100 µM throughout.

For `CCc1ccc(CCC(=O)Nc2ncc(Cc3ccccc3)s2)o1`, the GI50 is 1210 nM in test [1]; 4420 nM in test [2]; 1670 nM in test [3]; 3240 nM in test [4]; 2940 nM in test [5]; 2810 nM in test [6]. Besides, the GI50 is above 100 µM in test [7] and 18300 nM in test [8]. Also, the TGI in test [1] is above 100 µM; in test [2], above 100 µM; in test [3], 4.46 µM; in test [4], above 100 µM; in test [5], above 100000 nM; in test [6], above 100 µM. The TGI in test [7] and in test [8] was above 100 µM in each case.

With `O=C(Nc1ccc(Nc2ccncc2)cc1)c1ccc(Nc2ccnc3ccc([N+](=O)[O-])cc23)cc1`, the GI50 in test [1] was 68100 nM; in test [2] it was above 100000 nM; in test [3], above 100000 nM; in test [4] it was above 100000 nM; in test [5], above 100000 nM; in test [6] it was above 100000 nM. For the same compound, the GI50 in test [7] was above 100 µM. The TGI is above 100 µM in test [1]; above 100 µM in test [2]; above 100 µM in test [3]; above 100 µM in test [4]; above 100000 nM in test [5]; above 100 µM in test [6]. In addition, the TGI in test [7] was above 100 µM.

Consider `NC(=NC1CCCCCC1)c1ccc(N2CCN(c3ccc(C(N)=NC4CCCCCC4)cc3)CC2)cc1`, for which the GI50 was 7800 nM in test [1]; 2330 nM in test [2]; 8900 nM in test [4]; above 50000 nM in test [5]; 15700 nM in test [6]; 9.75 µM in test [7]. Besides, the TGI in test [1] is 17.2 µM; in test [2] it was 16.9 µM; in test [4], above 50 µM; in test [5] it was above 50000 nM; in test [6], 44.9 µM; in test [7] it was above 50 µM.
